# In US6358885B1, “Substituted phenylheterocyclic herbicides” (Mississippi State University, priority 1992, dated 2002):
# Columns and labels:
# Test in all cases: Test B preemergence/postemergence greenhouse plant response rating 0 to 10
# [1] = tested on: purple nutsedge; assay type: in vivo, Cyperus rotundus; details: for Plant response rating, Nutsedge: 0 to 10 scale
# Outline: (§1)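 Postemergence treatment of plants two to eighteen cm tall ran alongside preemergence treatment of planted seed, each using compound in a non-phytotoxic solvent.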
# [2] = tested on: cheatgrass; assay type: in vivo, Bromus secalinus; details: for Plant response rating, Cheatgrass: POSTEMERGENCE, 0 to 10 scale
# Outline: as §1
# [3] = tested on: soybean; assay type: in vivo, Glycine max; details: for Plant response rating, Soybean: 0 to 10 scale
# Outline: as §1
# [4] = tested on: sugar beet; assay type: in vivo, Beta vulgaris; details: for Plant response rating, Sugar beet: 0 to 10 scale
# Outline: as §1
# [5] = tested on: cocklebur; assay type: in vivo, Xanthium pensylvanicum; details: for Plant response rating, Cocklebur: 0 to 10 scale
# Outline: as §1
# [6] = tested on: sorghum; assay type: in vivo, Sorghum bicolor; details: for Plant response rating, Sorghum: 0 to 10 scale
# Outline: as §1
# [7] = tested on: cotton; assay type: in vivo, Gossypium hirsutum; details: for Plant response rating, Cotton: 0 to 10 scale
# Outline: as §1
# [8] = tested on: crabgrass; assay type: in vivo, Digitaria spp.; details: for Plant response rating, Crabgrass: 0 to 10 scale
# Outline: as §1
# [9] = tested on: barley; assay type: in vivo, Hordeum vulgare; details: for Plant response rating, Barley: 0 to 10 scale
# Outline: as §1
# [10] = tested on: wild oat; assay type: in vivo, Avena fatua; details: for Plant response rating, Wild oat: 0 to 10 scale
# Outline: as §1
# [11] = tested on: bedstraw; assay type: in vivo, Galium aparine; details: for Plant response rating, Bedstraw: 0 to 10 scale
# Outline: as §1
# [12] = tested on: morningglory; assay type: in vivo, Ipomoea hederacea; details: for Plant response rating, Morningglory: 0 to 10 scale
# Outline: as §1
# [13] = tested on: wheat; assay type: in vivo, Triticum aestivum; details: for Plant response rating, Wheat: 0 to 10 scale
# Outline: as §1
# [14] = tested on: velvetleaf; assay type: in vivo, Abutilon theophrasti; details: for Plant response rating, Velvetleaf: 0 to 10 scale
# Outline: as §1
# [15] = tested on: rice; assay type: in vivo, Oryza sativa; details: for Plant response rating, Rice: 0 to 10 scale
# Outline: as §1
# [16] = tested on: rape; assay type: in vivo, Brassica napus; details: for Plant response rating, Rape: 0 to 10 scale
# Outline: as §1
# [17] = tested on: wild buckwheat; assay type: in vivo, Polygonum convolvulus; details: for Plant response rating, Wild buckwheat: 0 to 10 scale
# Outline: as §1
# [18] = tested on: corn; assay type: in vivo, Zea mays; details: for Plant response rating, Corn: 0 to 10 scale
# Outline: as §1
# [19] = tested on: barnyardgrass; assay type: in vivo, Echinochloa crus-galli; details: for Plant response rating, Barnyardgrass: 0 to 10 scale
# Outline: as §1
# [20] = tested on: giant foxtail; assay type: in vivo, Setaria faberii; details: for Plant response rating, Giant foxtail: 0 to 10 scale
# Outline: as §1
# [21] = tested on: blackgrass; assay type: in vivo, Alopecurus myosuroides; details: for Plant response rating, Blackgrass: 0 to 10 scale
# Outline: as §1
# [22] = tested on: lambsquarters; assay type: in vivo, Chenopodium album; details: for Plant response rating, Lambsquarter: 0 to 10 scale
# Outline: as §1
# [23] = tested on: chickweed; assay type: in vivo, Stellaria media; details: for Plant response rating, Chickweed: 0 to 10 scale
# Outline: as §1
compound,measurement,setting,value
Oc1cc(-c2nn3c(c2Cl)CCCC3)c(Cl)cc1Cl [Compound 68],"Plant response rating, Nutsedge","[1]; POSTEMERGENCE, Rate 50 g/ha",2
same,"Plant response rating, Nutsedge","[1]; PREEMERGENCE, Rate 50 g/ha",0
same,"Plant response rating (0 to 10 scale), Nutsedge","[1]; PREEMERGENCE, Rate 200 g/ha",0
same,"Plant response rating, Nutsedge","[1]; Rate 200 g/ha, POSTEMERGENCE",3
same,"Plant response rating, Cheatgrass",[2]; Rate 50 g/ha,2
same,"Plant response rating (0 to 10 scale), Cheatgrass","[2]; PREEMERGENCE, Rate 200 g/ha",3
same,"Plant response rating, Cheatgrass",[2]; Rate 200 g/ha,3
same,"Plant response rating, Soybean","[3]; POSTEMERGENCE, Rate 50 g/ha",4
same,"Plant response rating, Soybean","[3]; PREEMERGENCE, Rate 50 g/ha",0
same,"Plant response rating (0 to 10 scale), Soybean","[3]; PREEMERGENCE, Rate 200 g/ha",0
same,"Plant response rating, Soybean","[3]; Rate 200 g/ha, POSTEMERGENCE",6
same,"Plant response rating, Sugar beet","[4]; POSTEMERGENCE, Rate 50 g/ha",9
same,"Plant response rating, Sugar beet","[4]; PREEMERGENCE, Rate 50 g/ha",0
same,"Plant response rating (0 to 10 scale), Sugar beet","[4]; PREEMERGENCE, Rate 200 g/ha",9
same,"Plant response rating, Sugar beet","[4]; Rate 200 g/ha, POSTEMERGENCE",10
same,"Plant response rating, Cocklebur","[5]; POSTEMERGENCE, Rate 50 g/ha",6
same,"Plant response rating, Cocklebur","[5]; PREEMERGENCE, Rate 50 g/ha",0
same,"Plant response rating (0 to 10 scale), Cocklebur","[5]; PREEMERGENCE, Rate 200 g/ha",0
same,"Plant response rating, Cocklebur","[5]; Rate 200 g/ha, POSTEMERGENCE",7
same,"Plant response rating, Sorghum","[6]; POSTEMERGENCE, Rate 50 g/ha",3
same,"Plant response rating, Sorghum","[6]; PREEMERGENCE, Rate 50 g/ha",0
same,"Plant response rating (0 to 10 scale), Sorghum","[6]; PREEMERGENCE, Rate 200 g/ha",0
same,"Plant response rating, Sorghum","[6]; Rate 200 g/ha, POSTEMERGENCE",4
same,"Plant response rating, Cotton","[7]; POSTEMERGENCE, Rate 50 g/ha",10
same,"Plant response rating, Cotton","[7]; PREEMERGENCE, Rate 50 g/ha",0
same,"Plant response rating (0 to 10 scale), Cotton","[7]; PREEMERGENCE, Rate 200 g/ha",0
same,"Plant response rating, Cotton","[7]; Rate 200 g/ha, POSTEMERGENCE",10
same,"Plant response rating, Crabgrass","[8]; POSTEMERGENCE, Rate 50 g/ha",3
same,"Plant response rating, Crabgrass","[8]; PREEMERGENCE, Rate 50 g/ha",0
same,"Plant response rating (0 to 10 scale), Crabgrass","[8]; PREEMERGENCE, Rate 200 g/ha",2
same,"Plant response rating, Crabgrass","[8]; Rate 200 g/ha, POSTEMERGENCE",4
same,"Plant response rating, Barley","[9]; POSTEMERGENCE, Rate 50 g/ha",3
same,"Plant response rating, Barley","[9]; PREEMERGENCE, Rate 50 g/ha",0
same,"Plant response rating (0 to 10 scale), Barley","[9]; PREEMERGENCE, Rate 200 g/ha",0
same,"Plant response rating, Barley","[9]; Rate 200 g/ha, POSTEMERGENCE",3
same,"Plant response rating, Wild oat","[10]; POSTEMERGENCE, Rate 50 g/ha",2
same,"Plant response rating, Wild oat","[10]; PREEMERGENCE, Rate 50 g/ha",0
same,"Plant response rating (0 to 10 scale), Wild oat","[10]; PREEMERGENCE, Rate 200 g/ha",0
same,"Plant response rating, Wild oat","[10]; Rate 200 g/ha, POSTEMERGENCE",3
same,"Plant response rating, Bedstraw","[11]; POSTEMERGENCE, Rate 50 g/ha",7
same,"Plant response rating, Bedstraw","[11]; PREEMERGENCE, Rate 50 g/ha",0
same,"Plant response rating (0 to 10 scale), Bedstraw","[11]; PREEMERGENCE, Rate 200 g/ha",2
same,"Plant response rating, Bedstraw","[11]; Rate 200 g/ha, POSTEMERGENCE",9
same,"Plant response rating, Morningglory","[12]; POSTEMERGENCE, Rate 50 g/ha",8
same,"Plant response rating, Morningglory","[12]; PREEMERGENCE, Rate 50 g/ha",0
same,"Plant response rating (0 to 10 scale), Morningglory","[12]; PREEMERGENCE, Rate 200 g/ha",0
same,"Plant response rating, Morningglory","[12]; Rate 200 g/ha, POSTEMERGENCE",8
same,"Plant response rating, Wheat","[13]; POSTEMERGENCE, Rate 50 g/ha",3
same,"Plant response rating, Wheat","[13]; PREEMERGENCE, Rate 50 g/ha",0
same,"Plant response rating (0 to 10 scale), Wheat","[13]; PREEMERGENCE, Rate 200 g/ha",3
same,"Plant response rating, Wheat","[13]; Rate 200 g/ha, POSTEMERGENCE",4
same,"Plant response rating, Velvetleaf","[14]; POSTEMERGENCE, Rate 50 g/ha",8
same,"Plant response rating, Velvetleaf","[14]; PREEMERGENCE, Rate 50 g/ha",0
same,"Plant response rating (0 to 10 scale), Velvetleaf","[14]; PREEMERGENCE, Rate 200 g/ha",9
same,"Plant response rating, Velvetleaf","[14]; Rate 200 g/ha, POSTEMERGENCE",10
same,"Plant response rating, Rice","[15]; POSTEMERGENCE, Rate 50 g/ha",5
same,"Plant response rating, Rice","[15]; PREEMERGENCE, Rate 50 g/ha",0
same,"Plant response rating (0 to 10 scale), Rice","[15]; PREEMERGENCE, Rate 200 g/ha",0
same,"Plant response rating, Rice","[15]; Rate 200 g/ha, POSTEMERGENCE",5
same,"Plant response rating, Rape","[16]; POSTEMERGENCE, Rate 50 g/ha",3
same,"Plant response rating, Rape","[16]; PREEMERGENCE, Rate 50 g/ha",0
same,"Plant response rating (0 to 10 scale), Rape","[16]; PREEMERGENCE, Rate 200 g/ha",0
same,"Plant response rating, Rape","[16]; Rate 200 g/ha, POSTEMERGENCE",5
same,"Plant response rating, Wild buckwheat","[17]; POSTEMERGENCE, Rate 50 g/ha",10
same,"Plant response rating, Wild buckwheat","[17]; PREEMERGENCE, Rate 50 g/ha",0
same,"Plant response rating (0 to 10 scale), Wild buckwheat","[17]; PREEMERGENCE, Rate 200 g/ha",4
same,"Plant response rating, Wild buckwheat","[17]; Rate 200 g/ha, POSTEMERGENCE",10
same,"Plant response rating, Corn","[18]; POSTEMERGENCE, Rate 50 g/ha",3
same,"Plant response rating, Corn","[18]; PREEMERGENCE, Rate 50 g/ha",0
same,"Plant response rating (0 to 10 scale), Corn","[18]; PREEMERGENCE, Rate 200 g/ha",0
same,"Plant response rating, Corn","[18]; Rate 200 g/ha, POSTEMERGENCE",4
same,"Plant response rating, Barnyardgrass","[19]; POSTEMERGENCE, Rate 50 g/ha",2
same,"Plant response rating, Barnyardgrass","[19]; PREEMERGENCE, Rate 50 g/ha",0
same,"Plant response rating (0 to 10 scale), Barnyardgrass","[19]; PREEMERGENCE, Rate 200 g/ha",0
same,"Plant response rating, Barnyardgrass","[19]; Rate 200 g/ha, POSTEMERGENCE",3
same,"Plant response rating, Giant foxtail","[20]; POSTEMERGENCE, Rate 50 g/ha",4
same,"Plant response rating, Giant foxtail","[20]; PREEMERGENCE, Rate 50 g/ha",0
same,"Plant response rating (0 to 10 scale), Giant foxtail","[20]; PREEMERGENCE, Rate 200 g/ha",0
same,"Plant response rating, Giant foxtail","[20]; Rate 200 g/ha, POSTEMERGENCE",4
same,"Plant response rating, Blackgrass","[21]; POSTEMERGENCE, Rate 50 g/ha",2
same,"Plant response rating, Blackgrass","[21]; PREEMERGENCE, Rate 50 g/ha",2
same,"Plant response rating (0 to 10 scale), Blackgrass","[21]; PREEMERGENCE, Rate 200 g/ha",8
same,"Plant response rating, Blackgrass","[21]; Rate 200 g/ha, POSTEMERGENCE",3
same,"Plant response rating, Lambsquarter","[22]; POSTEMERGENCE, Rate 50 g/ha",10
same,"Plant response rating, Lambsquarter","[22]; PREEMERGENCE, Rate 50 g/ha",6
same,"Plant response rating (0 to 10 scale), Lambsquarter","[22]; PREEMERGENCE, Rate 200 g/ha",0
same,"Plant response rating, Lambsquarter","[22]; Rate 200 g/ha, POSTEMERGENCE",10
same,"Plant response rating, Chickweed","[23]; POSTEMERGENCE, Rate 50 g/ha",0
same,"Plant response rating, Chickweed","[23]; PREEMERGENCE, Rate 50 g/ha",2
same,"Plant response rating (0 to 10 scale), Chickweed","[23]; PREEMERGENCE, Rate 200 g/ha",2
same,"Plant response rating, Chickweed","[23]; Rate 200 g/ha, POSTEMERGENCE",1
